# Measurements reported in patent US20050282225A1, “Quantitative binding assays using green fluorescent protein as a label” (priority 1998, published 2005).
# Where no end group is shown, it is not given here.
# Target: Avidin (Gallus gallus, UniProt P02701)
# Assay: not given
# Conditions: association (affinity) constant of the binding pair substance: Avidin; cited from earlier work
# Chain of Avidin (P02701 25-152): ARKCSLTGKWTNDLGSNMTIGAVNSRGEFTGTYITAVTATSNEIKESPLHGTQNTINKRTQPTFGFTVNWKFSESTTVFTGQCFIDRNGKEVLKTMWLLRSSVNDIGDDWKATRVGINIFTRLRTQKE
row,Molecule,Ka
1,O=C(O)CCCCC1SCC2NC(=S)NC21 (stereo not drawn) [2-thiobiotin],10^13 M^−1
2,COC(=O)CCCCC1SCC2NC(=O)N(C(=O)OC)C21 (stereo not drawn) [3′-N-methoxy-carbonylbiotin methyl ester],10^9 M^−1
3,O=C(O)CCCC[C@@H]1SC[C@@H]2NC(=O)N[C@@H]21 [Biotin],10^15 M^−1
4,C[C@@H]1NC(=O)N[C@@H]1CCCCCC(=O)O [Dethiobiotin],10^13 M^−1
5,N=C1N[C@H]2[C@H](CS[C@H]2CCCCC(=O)O)N1 [Iminobiotin],10^11 M^−1

# Test system: anti-octapeptide M2 monoclonal antibody
# Assay: heterogeneous competitive immunoassay with immobilized M2 antibody and octapeptide-GFP conjugate, selectivity study
# Format: binding
# Conditions: sequential incubation 25 min + 25 min, supernatant fluorescence (FIG. 10)
# Procedure: A dose-response curve was constructed by incubating 200 μL of a solution of different concentrations of the octapeptide with 200 μL of a 140 μg/mL suspension of the immobilized antibody and 90 μL of 1.1×10^−8 M of octapeptide-GFP conjugate and 1.510 mL of PBS buffer.
# The incubations were performed in a sequential manner. Initially, the octapeptide was incubated with the beads for 25 min. Then, the tubes were centrifuged at 2000×g for 15 min, the supernatant was removed, and the beads were washed three times with PBS. PBS (1.710 mL) and the octapeptide-GFP conjugate were added, and the mixture was incubated for an additional 25 min at room temperature. The beads were then centrifuged again as described, and 1.7 mL of the supernatant was transferred to plastic cuvettes for measurement of fluorescence emission at 508 nm. The selectivity of the assay was evaluated by constructing a dose-response curve for rev-octapeptide, an octapeptide with the amino acids of the octapeptide in the reverse order.
row,Molecule,response in dose-response curve (displacement of octapeptide-GFP from M2 antibody)
1,"KDDDDKYD [rev-octapeptide, octapeptide with the amino acids of the octapeptide in the reverse order]",essentially no response
